Experimental data published in EP0220153B1, “A nutritive emulsion having oxygen-transporting properties, and process for its preparation” (Kabi Pharmacia AB, priority 1985, dated 1987).

Assay: acute toxicity test on mice
Conditions: mouse, in vivo, other: injected, injected as emulsion of example 1 composition, observation time 72 hours, expressed for perfluorodecalin
Procedure: An emulsion of the same composition and prepared in the same way as in example 1 was tested on mice for acute toxicity. Observation time was 72 hours.
It appears that the acute toxicity (LD₅₀) will be just below 30 g/kg for perfluorodecalin. Owing to the great volumes that were injected, it cannot be excluded that changes in liquid and electrolyte balance have affected the results and that, therefore, an examination of this kind not solely reflects the toxicity of the fluorocarbon compound; however, the indicated value of 30 g/kg is of such a magnitude that the preparation can be regarded as non-toxic.

SMILES: FC1(F)C(F)(F)C(F)(F)C2(F)C(F)(F)C(F)(F)C(F)(F)C(F)(F)C2(F)C1(F)F (stereo not shown) [perfluorodecalin]
- LD50 at 72 h: < 30000 mg/kg
